The subject of data set [1] is J2 juveniles of Meloidogyne graminicola. Description: In vitro nematode toxicity assay, M. graminicola J2 (Example 11). As to conditions: second experiment, C4H inhibitor 100 μM, Vertimec 0.02 v/v % abamectin, water control 93%. The method, then:
J2 juveniles of Meloidogyne graminicola and Heterodera schachtii were isolated from Echinocloa cruss-galli roots and sugar beet roots respectively. Per treatment and species combination, 300 nematodes were isolated and divided over six wells that contained 1.5 ml of either sterilized tap water, a 100 μM C4H inhibitor solution or a 0.02 v/v % solution of the nematicide abamectin (Vertimec®, Syngenta AG). The nematodes were incubated in the dark on a slow-moving rotary shaker (50 rpm) and the number of living nematodes was counted regularly using a binocular microscope.
To rule out definitively that the compounds of the invention operate through direct toxicity to nematodes, an in vitro toxicity assay on J2 juveniles of the nematodes Meloidogyne graminicola and Heterodera schachtii was performed.
First, survival upon exposure to the C4H inhibitor piperonylic acid (PA) was compared to a negative control (tap water) and a positive control, the commercial nematicide Vertimec (0.02% Abamectin). A detailed survival curve is shown in FIG. 12a (M. graminicola) and FIG. 12b (H. schachtii).
In a second experiment, a broader range of C4H inhibitors were assayed in the same manner. The toxicity of piperonylic acid (PA), piperine (PIP), 4-propynyloxybenzoic acid (4PB), and 3-(4-pyridyl)acrylic acid (3PA) to J2 juveniles of Meloidogyne graminicola was compared to a negative control (tap water) and a true nematicide (Vertimec, active ingredient abamectin).

Data set [2] concerns spring wheat (Triticum aestivum cv. Fielder). Kind of data set: Yield and fertility in pathogen-free spring wheat (Example 2). Conditions: 300 μM foliar spray three times; vs. control.
Description: For Example 2, the spring wheat cultivar Fielder was used. Seeds were obtained from plants grown in the greenhouse complex of the VIB (Zwijnaarde, Belgium). Seeds were sown directly in potting soil (four seeds to a pot, thinned to three plants per pot after emergence) and placed in a growth chamber at 21° C. with 16 hours per day of light. These plants were grown until harvest; they were sprayed three times with the compounds of the invention at a concentration of 300 μM using the protocol described in the chemicals section. Spraying took place 14 and 21 days after emergence and a final time at heading.
In all cases model assumptions were verified using diagnostic plots (residuals, QQ-plot, scale-location and residuals-leverage). Outliers were removed only if they were outliers both in the statistical sense and if there was a biological reason for removal (e.g. the plant was stunted or developed a secondary infection).
To determine the effects of C4H inhibition on yield and fertility, spring wheat (Triticum aestivum cv. Fielder) was grown in a pathogen-free growth chamber until maturity and treated with a control or C4H inhibitor-containing foliar spray at regular intervals. At harvest, the number of ears per plant, the seed mass, the size of the seeds and the germination ability of the freshly harvested seeds were measured. Seed size was measured using the stacking density of the seed as a proxy measure; if a given seed mass takes up a greater volume, then the individual seeds must be larger.
Data set [3] has as its system Meloidogyne graminicola. Description: Meloidogyne graminicola infection in rice cv. Kitaake, additional C4H inhibitors (Example 6). It is filed as in vivo. As to conditions: foliar spray, N=8. The method, then: (§1) Unless otherwise mentioned, all chemicals for nematode experiments were applied as a foliar spray consisting of the target compound at a concentration of 300 μM together with 0.1% (v/v) Tween 20 surfactant (Calbiochem) in distilled water. Again unless otherwise mentioned, all treatments for the nematode experiments were carried out three times: one and eight days before pathogen inoculation and seven days after pathogen inoculation. In all cases, plants were sprayed until run-off with an atomizer.
(§2) Infection experiments with M. graminicola were performed by inoculating host plants 14 days after transfer to SAP by introducing the desired amount of J2 juveniles next to the root system using a micro pipette. Rice plants (cv. Nipponbare or Kitaake) were inoculated with 250 J2 juveniles per plant; wheat plants (cv. Sahara) were inoculated with 600 J2 juveniles per plant. Plants were harvested 14 days after inoculation. At this point, the plants were phenotyped by measuring the shoot and root length with a ruler, counting the number of adventitious roots and in some experiments by measuring leaf area using the EasyLeafArea software (Easlon and Bloom, 2014) and by determining shoot dry mass after 72 hours of drying in an oven at 70° C. Root systems were then stained in acid fuchsine as described in (Byrd et al., 1983) and left to destain in glycerol with 1 ml/l fuming HCl added for approximately ten days. The number of galls and nematodes was then counted using a binocular microscope.
Four different C4H inhibitors were used: piperonylic acid (PA), piperine (PIP), 4-propynyloxybenzoic acid (4PB) and 3-(4-pyridyl)acrylic acid (3PA).

Another data set deals with C4H enzyme. Kind of data set: Yeast heterologous expression assay of C4H inhibition (Example 15). The format is biochemical. The procedure: Further structural analogs of the C4H inhibitor 4-iodobenzoic acid (IBA) were tested for their ability to inhibit the C4H enzyme in a yeast heterologous expression assay.
Data set [4] relates to Arabidopsis thaliana (ecotype Col-0) seedlings. Kind of data set: In vitro Arabidopsis thaliana seedling growth assay (Example 15). The format is in vivo. As to conditions: for Agravitropy ratio / Primary root length / Rosette area: 14 days old seedlings; for Agravitropy ratio / Primary root length / Rosette area / Germination rate: mean ± SD.
The test system of a further data set is wheat. Description: Phytotoxicity of foliar spray in uninfected wheat (Example 1). As to conditions: 500 μM foliar spray, 8 plants per treatment; for Root length / Shoot length: mean ± standard deviation; for BBCH stage: median ± interquartile range. It is filed as in vivo, Triticum aestivum. The procedure:
(§3) For Examples 1, 5 and 10, seeds of the winter wheat cultivar Sahara (Aveve Agrarisch, Landen, Belgium) were used. Seeds were washed in a 10% ethanol solution to remove any residual traces of fungicide and then germinated on wet paper at room temperature for four days; seeds were transferred to SAP tubes and placed in a growth chamber (25° C., 16 hours per day of light). Plants were watered with 8 ml of half-strength Hoagland solution every two days for the first ten days and with 8 ml of full strength Hoagland solution every two days afterwards.
as §1
(§4) Short-term phytotoxicity experiments (Example 1) were analyzed using non-parametric methods. For each variable, overall significance was determined using the Kruskal-Wallis test (Kruskal and Wallis, 1952), followed by a posthoc Conover-Iman test (Conover and Iman, 1981) with Hommel multiplicity correction (Hommel, 1988) if the Kruskal-Wallis test was significant. When only two groups were present, the Wilcoxon-Mann-Whitney test was used (Mann and Whitney, 1947).
(§5) To test whether C4H inhibitors induce phytotoxic effects in crops, uninfected tomato, wheat and carrot were treated with piperonylic acid (PA), 4-iodobenzoic acid (4-IBA) and piperic acid (PIA) at a concentration of 500 μM through foliar application. At harvest, leaf area (or shoot length in the case of wheat) and primary root length were recorded. The BBCH developmental stage (Lancashire et al., 1991), a measure of developmental retardation, was used to test for effects on development. Finally, the presence of visible signs of phytotoxicity such as chlorosis, discoloration or necrosis was recorded.

A further data set has as its system carrot. Kind of data set: Phytotoxicity of foliar spray in uninfected carrot (Example 1). As to conditions: 500 μM foliar spray, 8 plants per treatment; for Leaf Area: mean ± standard deviation; for BBCH stage: median ± interquartile range. It is filed as in vivo, Daucus carota. The method, then:
Carrot seeds, cv. Nantes 2 (Vreeken's Zaden, Dordrecht, the Netherlands) were germinated on wet paper for seven days at 21° C. After germination, seedlings were transferred to individual pots filled with potting soil and placed in a growth chamber at 21° C.
as §1, §4, §5

A further data set deals with tomato. Description: Phytotoxicity of foliar spray in uninfected tomato (Example 1). As to conditions: 500 μM foliar spray, 8 plants per treatment; for Leaf Area / Root length: mean ± standard deviation; for BBCH stage: median ± interquartile range. The format is in vivo, Solanum lycopersicum. The procedure:
Tomato seeds, cv. Moneymaker (Vreeken's Zaden, Dordrecht, the Netherlands) were sown on autoclaved potting soil coveed with polyethylene film and placed at 24° C. for eight days. Seedlings were then transferred to individual SAP-filled pots and placed in a growth chamber at 24° C. Plants were watered three times per week with 25 ml of quarter-strength Hoagland solution for the first two weeks and half-strength thereafter.
as §1, §4, §5

The test system of data set [5] is Meloidogyne graminicola. Kind of data set: Meloidogyne graminicola infection in wheat cv. Sahara (Example 5). The format is in vivo. As to conditions: infected wheat, foliar spray. The procedure:
as §3, §1, §2
In this experiment, the compounds PA, MDCA and 4-IBA were tested as foliar spray in the monocot staple crop wheat (Triticum aestivum, cv. Sahara) against the nematode Meloidogyne graminicola. The bacterial compound LPS (lipopolysaccharide), which is a potent inducer of the plant immune system and a known priming agent (Desaki et al., 2006), was also included as a positive control.

The test system of a further data set is Meloidogyne incognita. Kind of data set: M. incognita infection in DIECA-treated tomato (Example 18). As to conditions: DIECA alone. It is filed as in vivo. The method, then: Infection experiments with M. incognita were performed in the same manner as those with M. graminicola, except that plants were harvested 31 days after inoculation instead of 14 days. At this point, the plants were phenotyped by measuring the root length with a ruler and in some experiments by measuring leaf area using the EasyLeafArea software (Easlon and Bloom, 2014) and by determining shoot dry mass after 72 hours of drying in an oven at 70° C. Galls were stained and counted as described above.
To determine whether C4H inhibitors depend on this hormonal pathway, it was tested whether tomato plants treated with the chemical inhibitor of jasmonic acid biosynthesis diethyldithiocarbamate (DIECA) (Farmer et al., 1994) still responded to PA treatment.

On to `O=C(/C=C/C=C/c1ccc2c(c1)OCO2)N1CCCCC1` [piperine, Piperine], for which, in [1], the “survival at the end of the experiment” value is recorded as 91%. Besides, in data set [2], the “Total yield (seed mass)” value is recorded as “small but statistically significant increase”, the “germination after fourteen days of freshly harvested seeds” value was “not significantly different”, the “mean number of ears per plant” value was “the same in all treatments” and the “seed size (stacking density)” value is on record as “no effect”. Besides, the “reduction in the number of galls compared to the control group” value (“reduction in the number of galls” below) with Meloidogyne graminicola [3] is −33%.

On to `O=C(O)/C=C/c1ccncc1` [Formula 3PA, 3-(4-pyridyl)-acrylic acid], for which the “survival at the end of the experiment” value in data set [1] amounted to 93%. The “reduction in the number of galls” value with Meloidogyne graminicola [3] is −47%.

For `O=C(O)c1ccc(C(F)(F)F)cc1` [CF3-BA, 4-trifluoromethylbenzoic acid], the C4H inhibitor activity entry in the data set with C4H enzyme is “significant C4H inhibitor activity”. Moreover, in [4] (50 μM), the Agravitropy ratio was 0.79 ± 0.15, the Primary root length is listed as 0.42 ± 0.14 cm, the Rosette area was determined as 0.16 ± 0.06 cm^2 and the Germination rate stood at 0.95 ± 0.22. In addition, in data set [4] (100 μM), the Agravitropy ratio amounted to 0.81 ± 0.10, the Primary root length is listed as 0.41 ± 0.14 cm, the Rosette area came to 0.15 ± 0.09 cm^2 and the Germination rate amounted to 0.84 ± 0.37. In addition, the “seedling phenotype compared with IBA” value in data set [4] (seedlings grown on amended medium) is on record as “identical phenotype to those grown on medium containing IBA”.

In the data set on wheat, `O=C(O)/C=C/C=C/c1ccc2c(c1)OCO2` [PIA, Piperic acid] showed a Root length of 14.57 ± 1.24 cm, a Shoot length of 31.07 ± 4.82 cm and a BBCH stage of 13 ± 0. In the data set on carrot, the “Leaf Area” value was determined as 4.78 ± 0.85 cm^2 and the BBCH stage was determined as 13 ± 0. Also, in the data set on tomato, the “Leaf Area” value was determined as 12.21 ± 1.66 cm^2, the Root length worked out at 8.24 ± 1.90 cm and the BBCH stage is listed as 103 ± 1.0.

`C#CCOc1ccc(C(=O)O)cc1` [Formula 4PB, 4-propynyloxybenzoic acid]: in data set [1], the “survival at the end of the experiment” value came out at 91%. In addition, the C4H inhibitor activity entry in the data set with C4H enzyme is listed as “significant C4H inhibitor activity”. The “reduction in the number of galls” value in the data set with Meloidogyne graminicola [3] was −44%.

In the data set on wheat, `O=C(O)c1ccc(I)cc1` [Formula 4-IBA, 4-iodobenzoic acid] displayed a Root length of 14.36 ± 2.78 cm, a Shoot length of 31.93 ± 3.38 cm and a BBCH stage of 13 ± 0. For the same molecule, the “Number of galls per AR” value in the data set on Meloidogyne graminicola [5] (n = 9) came to 2.7 ± 0.8. The same molecule came in with a Number of galls with Meloidogyne graminicola [5] (per root system, n = 9) of 27.8 ± 7.5. The “reduction in gall numbers” value in the data set with Meloidogyne graminicola [5] (vs control) was −27%. In addition, in [1], the “survival at the end of the experiment” value was determined as 89%. Further, in the data set with carrot, the “Leaf Area” value worked out at 5.05 ± 1.35 cm^2 and the BBCH stage is 13 ± 0. Further, in data set [4] (50 μM), the Agravitropy ratio is recorded as 0.78 ± 0.17, the Primary root length came out at 0.43 ± 0.15 cm, the Rosette area is recorded as 0.10 ± 0.06 cm^2 and the Germination rate is 0.88 ± 0.34. For the same molecule, in data set [4] (100 μM), the Agravitropy ratio worked out at 0.82 ± 0.11, the Primary root length amounted to 0.28 ± 0.07 cm, the Rosette area is 0.05 ± 0.01 cm^2 and the Germination rate turned out to be 0.84 ± 0.37. Also, in the data set with tomato, the “Leaf Area” value is reported as 8.92 ± 1.91 cm^2, the Root length was 7.40 ± 0.79 cm and the BBCH stage worked out at 102.5 ± 1.0.

Regarding `CCN(CC)C(=S)S` [DIECA, diethyldithiocarbamate, reference compound], in the data set with Meloidogyne incognita, the “change of number of galls, DIECA-treated tomato plants vs wild type” value is recorded as “+26%”.

Source of the values: US11992011B2, “Compounds for controlling plant pathogens” (VIB VZW, priority 2017, dated 2024).
